Assays:
[1] = Tissue distribution of radioactivity in SD rats; type: in vivo, Sprague–Dawley rats; details: oral 1 mg/kg
[2] = type: in vivo, Sprague–Dawley rats; details: all time‐points measured; oral 1 mg/kg [^14C]teneligliptin; SD rats

Cc1cc(N2CCN([C@@H]3CN[C@H](C(=O)N4CCSC4)C3)CC2)n(-c2ccccc2)n1 [Teneligliptin, 3‐[(2S,4S)‐4‐[4‐(3‐methyl‐1‐phenyl‐1H‐pyrazol‐5‐yl)piperazin‐1‐yl]pyrrolidin‐2‐ylcarbonyl] thiazolidine]
Concentration of radioactivity ([1]; Prostate, 0.5 h): 478.6 ± 167.1 ng eq/ml or g | Concentration of radioactivity ([1]; Prostate, 5 h): 169.0 ± 53.9 ng eq/ml or g | Concentration of radioactivity ([1]; Prostate, 12 h): 76.7 ± 18.8 ng eq/ml or g | Concentration of radioactivity ([1]; Prostate, 24 h): 38.6 ± 3.3 ng eq/ml or g | Concentration of radioactivity ([1]; Prostate, 72 h): 6.1 ± 1.3 (N.C.) ng eq/ml or g | Concentration of radioactivity ([1]; Prostate, 168 h): 2.2 ± 0.6 (N.C.) ng eq/ml or g | Concentration of radioactivity ([1]; Seminal vesicle, 0.5 h): 329.0 ± 105.4 ng eq/ml or g | Concentration of radioactivity ([1]; Seminal vesicle, 5 h): 133.8 ± 57.4 ng eq/ml or g | Concentration of radioactivity ([1]; Seminal vesicle, 12 h): 51.0 ± 6.3 ng eq/ml or g | Concentration of radioactivity ([1]; Seminal vesicle, 24 h): 18.7 ± 4.4 ng eq/ml or g | Concentration of radioactivity ([1]; Seminal vesicle, 72 h): 1.7 ± 2.0 (N.C.) ng eq/ml or g | Concentration of radioactivity ([1]; Skeletal muscle, 0.5 h): 242.5 ± 66.9 ng eq/ml or g | Concentration of radioactivity ([1]; Skeletal muscle, 5 h): 46.7 ± 20.1 ng eq/ml or g | Concentration of radioactivity ([1]; Skeletal muscle, 12 h): 16.7 ± 2.4 ng eq/ml or g | Concentration of radioactivity ([1]; Skeletal muscle, 24 h): 7.9 ± 1.1 ng eq/ml or g | Concentration of radioactivity ([1]; Skin, 0.5 h): 366.3 ± 77.9 ng eq/ml or g | Concentration of radioactivity ([1]; Skin, 5 h): 199.1 ± 47.5 ng eq/ml or g | Concentration of radioactivity ([1]; Skin, 12 h): 99.2 ± 14.6 ng eq/ml or g | Concentration of radioactivity ([1]; Skin, 24 h): 55.2 ± 2.9 ng eq/ml or g | Concentration of radioactivity ([1]; Skin, 72 h): 18.9 ± 1.6 (N.C.) ng eq/ml or g | Concentration of radioactivity ([1]; Skin, 168 h): 9.3 ± 3.3 (N.C.) ng eq/ml or g | Concentration of radioactivity ([1]; Spinal cord, 0.5 h): 28.2 ± 7.8 ng eq/ml or g | Concentration of radioactivity ([1]; Spinal cord, 5 h): 11.4 ± 5.8 ng eq/ml or g | Concentration of radioactivity ([1]; Spinal cord, 12 h): 4.9 ± 2.4 ng eq/ml or g | Concentration of radioactivity ([1]; Spinal cord, 24 h): 1.6 ± 1.1 ng eq/ml or g | Concentration of radioactivity ([1]; Spleen, 0.5 h): 1377.2 ± 292.1 ng eq/ml or g | Concentration of radioactivity ([1]; Spleen, 5 h): 510.7 ± 68.2 ng eq/ml or g | Concentration of radioactivity ([1]; Spleen, 12 h): 312.9 ± 31.8 ng eq/ml or g | Concentration of radioactivity ([1]; Spleen, 24 h): 217.7 ± 21.3 ng eq/ml or g | Concentration of radioactivity ([1]; Spleen, 72 h): 62.4 ± 7.3 (N.C.) ng eq/ml or g | Concentration of radioactivity ([1]; Spleen, 168 h): 17.0 ± 4.3 (N.C.) ng eq/ml or g | Concentration of radioactivity ([1]; Submaxillary gland, 0.5 h): 1009.9 ± 265.5 ng eq/ml or g | Concentration of radioactivity ([1]; Submaxillary gland, 5 h): 309.9 ± 62.2 ng eq/ml or g | Concentration of radioactivity ([1]; Submaxillary gland, 12 h): 123.7 ± 24.6 ng eq/ml or g | Concentration of radioactivity ([1]; Submaxillary gland, 24 h): 78.5 ± 12.3 ng eq/ml or g | Concentration of radioactivity ([1]; Submaxillary gland, 72 h): 18.0 ± 5.0 (N.C.) ng eq/ml or g | Concentration of radioactivity ([1]; Submaxillary gland, 168 h): 6.9 ± 2.5 (N.C.) ng eq/ml or g | Concentration of radioactivity ([1]; Testis, 0.5 h): 68.5 ± 21.6 ng eq/ml or g | Concentration of radioactivity ([1]; Testis, 5 h): 128.2 ± 41.8 ng eq/ml or g | Concentration of radioactivity ([1]; Testis, 12 h): 49.6 ± 10.4 ng eq/ml or g | Concentration of radioactivity ([1]; Testis, 24 h): 18.7 ± 2.4 ng eq/ml or g | Concentration of radioactivity ([1]; Testis, 72 h): 8.3 ± 10.2 (N.C.) ng eq/ml or g | Concentration of radioactivity ([1]; Thymus, 0.5 h): 538.8 ± 138.4 ng eq/ml or g | Concentration of radioactivity ([1]; Thymus, 5 h): 298.8 ± 61.8 ng eq/ml or g | Concentration of radioactivity ([1]; Thymus, 12 h): 181.8 ± 19.4 ng eq/ml or g | Concentration of radioactivity ([1]; Thymus, 24 h): 132.1 ± 3.9 ng eq/ml or g | Concentration of radioactivity ([1]; Thymus, 72 h): 37.5 ± 8.1 (N.C.) ng eq/ml or g | Concentration of radioactivity ([1]; Thymus, 168 h): 10.6 ± 3.3 (N.C.) ng eq/ml or g | Concentration of radioactivity ([1]; Thyroid, 0.5 h): 826.4 ± 164.2 ng eq/ml or g | Concentration of radioactivity ([1]; Thyroid, 5 h): 279.2 ± 83.8 ng eq/ml or g | Concentration of radioactivity ([1]; Thyroid, 12 h): 124.3 ± 25.9 ng eq/ml or g | Concentration of radioactivity ([1]; Thyroid, 24 h): 55.2 ± 7.4 ng eq/ml or g | time of maximum tissue concentration ([1]; large intestine): 12 h | radioactivity concentration as % of the maximum concentration ([1]; other tissues, 168 h): ≤ 3% | plasma radioactivity ([1]; plasma, 72 h): undetectable | time of maximum tissue concentration ([1]; testis, epididymis and cecum): 5 h | radioactive component in plasma and kidney (HPLC radiochromatogram) [2]: most abundant radioactive component

Reference: PMC5074247 (Biopharmaceutics & Drug Disposition, 2016)
